Measurements reported in patent US20040161781A1, “Compositions and methods for identifying thymidylate synthase modulators” (priority 2002, published 2004).
Entries after “also recorded” stand apart in the source; their conditions may differ. *1 amine or outer side, *2 acyl side, *3 side chain or, on linkers, in order; H or OH if unused. Where a SMILES comes first, the peptide text is derived from it. Bridges are numbered along the chain shown (N, C = ends). Roman numbers before positions name the chains, in order. [ ]: non-standard residue; d: D form. Actinocin(9to1) = Cc1c2oc3c(C)ccc(C(=O)[*:1])c3nc-2c(C(=O)[*:2])c(N)c1=O; NMeV = CN[C@H](C(=O)O)C(C)C; Sar = CNCC(=O)O

Experiments:
Assay type in all cases: cell-based, human
[1] = test system: thymidylate synthase (TS); assay: Down-regulation of TS in H630 cells treated with acyl-homoserine lactones (Western blotting); conditions: overnight (approximately 16 hours)
Text: FIG. 6. A representation of the ability of acyl homoserine lactones to down-regulate TS in H630 cells.
The signaling molecules produced by the rTS signaling pathway cause a decrease in the amount of TS found in cells. These signaling molecules can simulate the effects of the compound 3-oxo-hexanoyl homoserine lactone in activating the receptor for this compound when it is present in a recombinant bacteria. […] This hypothesis was validated by the results of an experiment portrayed in FIG. 6. Accordingly, the down-regulation of TS in H630 (human colon cancer) cells treated with acyl-homoserine lactones was tested. Cells growing in RPMI 1640 culture medium, supplemented with 10% dialyzed fetal bovine serum at 37° C. in an atmosphere of 95:5 air:CO2. The compounds with the structures shown were added to the cells and allowed to incubate overnight (approximately 16 hours). The cells were extracted and TS measured by Western blotting as described. The compounds from top to bottom are: (1) 3-hydroxy butanoyl homoserine lactone, (2) butanoyl homoserine lactone; (3) 3-oxo-hexanoyl homoserine lactone; (4) d, 1-hexanoyl homoserine lactone, and (5) 1-homoserine lactone. Tubulin is shown as a loading standard.

[2] = test system: thymidylate synthase (TS); assay: Luciferase induction in H630 cells containing pG3E1-2TBE-Neo by acyl homoserine lactone; conditions: 18 h
Text: FIG. 7. Induction of luciferase as a function of 3-oxo-6-hexanoyl-homoserine lactone concentrations. H630 cells containing pG3E1-2TBE-Neo were exposed to the indicated concentrations of 3-oxo-6-hexanoyl homoserine lactone for 18 hrs then analyzed for luciferase activity.
FIG. 8. Comparison of 5-fluorouracil (5-FU) and 3-oxo-hexanoyl-homoserine lactone on induction of luciferase. H630 cells containing pG3E1-2TBE-Neo were exposed to the indicated concentrations of each compound for 18 hrs and analyzed for luciferase activity.
H630 cells containing pG3E1-2TBE-Neo were exposed to the indicated concentrations of 3-oxo-6-hexanoyl homoserine lactone for 18 h then analyzed for luciferase activity (FIG. 7).

[3] = test system: thymidylate synthase (TS); assay: Luciferase assay in stably transfected H630-C6 cells (pG3E1-2TBE-Neo); conditions: H630-C6 cells
Method: FIGS. 3a-3j. RLU production in H630-C6 cells in response to TS inhibitors. H630-C6 cells were evaluated for luciferase activity in response to treatment with the indicated compounds. The cells were exposed to the compounds at the indicated concentrations for 18 hr and luciferase assays were then performed according to the manufacturer's instructions. The mean values of triplicates or quadruplicates are shown along with the standard derivations.
This example describes the stable transfection of cells with the DNA construct of the present invention. To facilitate selection of stable transformants, we added a neomycin-resistance gene to the pG3E1-2TBE (FIG. 1) to generate a new plasmid termed pG3E1-2TBE-Neo as follows. For stable transfection, pG3E1-2TBE-Neo was linearized at the ampicillin resistance gene with Ase I and was introduced into H630 cells as described above. At 24 hrs post-transfection, the cells were exposed to 400 μg/ml of G418 for two weeks. Individual clones were picked at that time and screened for their ability to induce luciferase in response to treatment with 5-FU, a known TS inhibitor. Following selection with G418 and evaluation for changes in luciferase activity after exposure of the cells to 5-FU, the cloned subline H630/pG3E1-2TBE-Neo-L1-2-C6 (H630-C6) was chosen for further study.
The stably transfected H630-C6 cell line was maintained in RPMI 1640 plus 10% dialyzed FBS and 400 μg/ml of geneticin (G418). For luciferase assays, 2×10^4 cells were seeded in each well of a 24-well plate in RPMI 1640 medium plus 10% FBS without G418 and were allowed to attach at least six hr, followed by drug exposure overnight (approximately 18 hr). The cells were then washed with PBS (137 mM NaCl, 2.7 mM KCl, 4.3 mM Na2HPO4, 1.4 mM KH2PO4, pH 7.4), lysed with Passive Lysis Buffer (Promega, Madison) and assayed for luciferase activity using the Luciferase Assay System (Promega, Madison, Wis.) according to the manufacturer's instructions. Relative light units (RLU) were measured with a Lumat LB 9501 luminometer (EG & G Berthold, Wildbad, Germany).
To test H630-C6 as a tool to identify TS modulators three different classes of compounds, i.e., specific or predominantly specific TS inhibitors, agents that inhibit folate pathways or inhibit TS as well as having other targets, and agents that act through TS unrelated sites of action were evaluated for their ability to induce changes in luciferase activity.

[4] = test system: thymidylate synthase (TS); assay: Evaluation of TS expression by Western blotting in H630-C6 cells
Method: FIGS. 4a and 4b. Evaluation of TS expression by Western blotting. […] The cells were harvested for Western blots.
This example describes the relationship between TS levels and luciferase production by various known TS inhibitors. Western blotting was performed as previously described (Dolnick and Black, 1996). Briefly, H630-C6 cells were washed with PBS and extracted with RIPA buffer. 10 μg of total protein was resolved by electrophoresis in a 10% SDS-PAGE and was blotted onto a PVDF membrane (Immobilon-P, Millipore, Bedford, Mass.). The membrane was hybridized with rabbit polyclonal antibody against TS (a gift from Dr. Edward Chu, VA Cancer Center, Yale University, West Haven, Conn.) diluted in SuperBlock Blocking Buffer (Pierce, Rockford, Ill.) plus 0.25% Tween 20 for one hour and hybridized with HRP-linked anti-rabbit secondary antibody (Jackson Laboratories) for an additional one hour. The membrane was detected with SuperSignal West Dura Extended Duration Substrate (Pierce, Rockford, Ill.) and was visualized by exposing the blot to Kodak XAR-5 film. […] The resulting signal was detected as described above.
The induction of luciferase activity depends upon the ability to reduce the amount of endogenous TS bound to the TBEs in the recombinant luciferase transcripts. Dissociation of TS from the luciferase reporter mRNA is expected to be accompanied by the removal of TS from TBEs located in other mRNAs as well, such as endogenous TS mRNA. Therefore, an increase in TS is expected to accompany the increase in luciferase. To verify whether a translational mechanism is involved we evaluated the levels of TS from cells treated with the compounds described above by Western blotting.

TS mRNA = assay: Evaluation of TS mRNA expression by RT-PCR in H630-C6 cells; conditions: 18 hr exposure
Method: FIGS. 5a and 5b. Evaluation of TS mRNA expression by RT-PCR. H630-C6 cells were exposed to the indicated compounds for 18 hr and total RNA was obtained for RT-PCR. Results are shown for 35 cycles of amplification. […] Similar results were obtained at lower cycles (data not shown).
This example describes the TS mRNA levels in the presence of various TS inhibitors. RNA was prepared using an RNAqueous kit (Ambion, Austin, Tex.). Reverse transcription was done using a Cells-to-cDNA kit (Ambion, Austin, Tex.). Polymerase chain reaction (PCR) was performed as described previously (Dolnick et al., 1992). Primers used for TS mRNA are 5′-TTTGGACAGCCTGGGATTCTC-3′ (Sense—SEQ ID NO:6) and 5′-AAAGCACCCTAAACAGCCATT-3′ (antisense—SEQ ID NO:7), generated a 600-bp PCR product. Primers used for β-actin are 5′-CAGCTCACCATGGATGATGATA-3′ (sense—SEQ ID NO:8) and 5′-CCA GAC GCA GGA TGG CAT-3′ (antisense—SEQ ID NO:9), generated a 543-bp PCR product. The PCR cycling condition used was: 95° C. for 30 seconds, 60° C. for 30 seconds, 72° C. for 1 minute, repeated for 25, 30 and 35 cycles (for TS) or 20, 25 and 30 cycles (for β-actin). Product formation was evaluated by ethidium bromide staining and was resolved by electrophoresis in 1.5% agarose gels.

Compound	down-regulation of TS (Western blotting), in words [1]	luciferase activity as a function of concentration [2]	increase of luciferase ([3]; 50 μM, 18 hr)	change in luciferase activity (RLU), in words ([3]; 18 hr exposure)	TS protein level by Western blotting ([4]; H630-C6 cells, 18 hr treatment)	TS levels as a function of time (time course) ([4]; by 24 hr, data not shown)	TS mRNA level by RT-PCR (TS mRNA)
CCCC(=O)CC(=O)N[C@H]1CCOC1=O [3-oxo-hexanoyl homoserine lactone]	most active of all the compounds shown	increased the luciferase activity	–	–	–	–	–
Cc1c2oc3c(C)ccc(C(=O)N[C@@H]4C(=O)N[C@H](C(C)C)C(=O)N5CCC[C@H]5C(=O)N(C)CC(=O)N(C)[C@@H](C(C)C)C(=O)O[C@@H]4C)c3nc-2c(C(=O)N[C@@H]2C(=O)N[C@H](C(C)C)C(=O)N3CCC[C@H]3C(=O)N(C)CC(=O)N(C)[C@@H](C(C)C)C(=O)O[C@@H]2C)c(N)c1=O [Act D, actinomycin D] (I: T[dV]P[Sar][NMeV] / II: T[dV]P[Sar][NMeV]; ester I:1-I:C, II:1-II:C; linker I:N-II:N via Actinocin(9to1))	–	–	up to 3.5 fold	concentration-dependent increase of RLU	no increase of TS protein; also recorded: did not induce TS levels	dropped	not altered
